These results are taken from patent publication US8173689B2 (Novartis AG, priority 2006, dated 2012).

Like-named read-outs stand apart in the source and are kept apart here.

Experiment [1] has as its target T1, cytoplasmic domain of the human CSF-1R (Homo sapiens, UniProt P07333).
T1 construct: Recombinant protein corresponding to the cytoplasmic domain of the human CSF-1R; purchased Invitrogen Corporation, Carlsbad, Calif; PV3249
T1 sequence (P07333 539-972 limits assumed): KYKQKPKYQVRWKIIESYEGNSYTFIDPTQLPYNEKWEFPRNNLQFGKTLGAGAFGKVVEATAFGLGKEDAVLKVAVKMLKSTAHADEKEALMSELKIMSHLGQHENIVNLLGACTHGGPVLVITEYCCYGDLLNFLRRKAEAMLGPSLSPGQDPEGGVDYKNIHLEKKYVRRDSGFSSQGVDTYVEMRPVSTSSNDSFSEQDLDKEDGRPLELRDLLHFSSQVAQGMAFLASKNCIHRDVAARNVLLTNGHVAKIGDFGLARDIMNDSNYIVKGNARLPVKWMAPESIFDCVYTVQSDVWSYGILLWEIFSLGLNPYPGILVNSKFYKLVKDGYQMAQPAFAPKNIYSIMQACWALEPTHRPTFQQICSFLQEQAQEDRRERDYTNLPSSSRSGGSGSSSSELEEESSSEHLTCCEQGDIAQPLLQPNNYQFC
Kind of experiment: In vitro kinase assay for colony stimulating factor-1 receptor (AlphaScreen). It is filed as biochemical. The settings on record: tested at about 1 μM, read-out: CSF-1R percent inhibition. In outline: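 AlphaScreen read-out (PT66 anti-pTyr acceptor beads, streptavidin donor beads, overnight incubation) measured phosphorylated peptide product. The product was formed by the human CSF-1R cytoplasmic domain at 4 nM with 1 µM ATP in Mg2+/Mn2+ HEPES buffer, pH 7.5. Compound dilution series were 3-fold, starting at 25 µM.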
A general note: Alpha assays give light when donor and acceptor beads are brought close together.

The target in experiment [2] is T2, kinase domain of cKIT (Homo sapiens, UniProt P10721).
T2 construct: The kinase domain of cKIT was assayed in 50 mM Hepes; purchased Upstate 14-559
T2 sequence (P10721 589-937 limits assumed): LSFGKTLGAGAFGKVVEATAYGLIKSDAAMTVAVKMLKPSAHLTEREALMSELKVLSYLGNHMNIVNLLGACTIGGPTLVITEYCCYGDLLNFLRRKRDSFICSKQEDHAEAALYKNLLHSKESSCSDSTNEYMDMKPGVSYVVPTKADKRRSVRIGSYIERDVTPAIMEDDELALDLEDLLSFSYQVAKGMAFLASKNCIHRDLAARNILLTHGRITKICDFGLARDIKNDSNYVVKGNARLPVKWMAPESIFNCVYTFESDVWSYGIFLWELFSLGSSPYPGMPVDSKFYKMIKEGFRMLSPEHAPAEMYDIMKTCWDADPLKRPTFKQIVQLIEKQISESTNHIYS
Kind of experiment: Inhibition of cKIT kinase signaling in an in vitro biochemical assay (alphascreen). The conditions noted are these: tested at about 1 μM, read-out: cKit percent inhibition.

Experiment [3] concerns the target T3, kinase domain of PDGFRβ (Homo sapiens, UniProt P09619).
T3 construct: The kinase domain of PDGFRβ was assayed in 50 mM Hepes; purchased Invitrogen P3082
Kind of experiment: Inhibition of PDGFRb kinase signaling in an in vitro biochemical assay (alphascreen). The conditions noted are these: tested at about 1 μM, read-out: PDGFRβ percent inhibition.

For experiment [4], the system named is MNFS60 (murine AML cells). Briefly: Cell viability assay in MCSF dependent MNFS60 cells (Cell Titer Glo). The class given is cell-based. The settings on record: Mus musculus, tested at about 1 μM, read-out: M-NFS-60 CP percent inhibition. As to the method:
Cell viability was assessed by Cell Titer Glo, Promega. […] Test compounds were serially diluted (3 fold) in DMSO to 500× the final concentration. […] Final concentration of MCSF is 10 ng/ml. Cells were incubated for 72 hrs at 37° C., 5% CO2. After the incubation 100 μl Cell Titer Glo is added to each well to determine viable cells. The assay was performed according to the manufacturer's instruction (Promega Corporation, Madison, Wis. USA). Each experimental condition was performed in triplicate. Raw data was imported in Abase and EC50s calculated with XL-fit data analysis software.
(ATP-based viability assays read luminescence as a measure of living cells.)

T3 sequence (P09619 600-962 limits assumed): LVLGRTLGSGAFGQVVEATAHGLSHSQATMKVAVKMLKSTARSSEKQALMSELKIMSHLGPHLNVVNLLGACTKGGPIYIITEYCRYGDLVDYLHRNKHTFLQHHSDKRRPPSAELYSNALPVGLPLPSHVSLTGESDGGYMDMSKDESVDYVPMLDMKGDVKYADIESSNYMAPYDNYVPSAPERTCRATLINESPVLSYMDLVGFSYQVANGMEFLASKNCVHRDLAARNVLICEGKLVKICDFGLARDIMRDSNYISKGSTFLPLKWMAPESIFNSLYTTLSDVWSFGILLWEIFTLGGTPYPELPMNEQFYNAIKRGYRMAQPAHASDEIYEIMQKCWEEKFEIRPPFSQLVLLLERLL

Consider `CC[C@H](C)[C@@H](CO)Nc1nc2ccc(Oc3ccnc(-c4cnn(C)c4)c3)cc2s1` [Example 349, (2S,3S)-3-methyl-2-(6-(2-(1-methyl-1H-pyrazol-4-yl)pyridin-4-yloxy)benzo[d]thiazol-2-ylamino)pentan-1-ol], for which the inhibition at 1 µM in experiment [1] is 100%; in experiment [2] it was 77%; in experiment [3] it was 73%; in experiment [4] (MCSF dependent MNFS60 cells), 100%.

Turning to `O[C@@H]1CCCC[C@H]1Nc1nc2ccc(Oc3ccnc(N4CCOCC4)c3)cc2s1` [Cmpd 175, (1R,2R)-2-(6-(2-morpholinopyridin-4-yloxy)benzo[d]thiazol-2-ylamino)cyclohexanol], the inhibition at 1 µM was 100% in experiment [1] (compounds of Table 3), 11% in experiment [2] (compounds of Table 3), 1% in experiment [3] (compounds of Table 3) and 17% in experiment [4] (compounds of Table 3).

Consider `CNC(=O)c1cc(Oc2ccc3nc(NCc4c(Cl)cccc4Cl)oc3c2)ccn1` [Compound 76, 4-[2-(2,6-Dichloro-benzylamino)-benzooxazol-6-yloxy]-pyridine-2-carboxylic acid methylamide], for which the inhibition at 1 µM came out at 98% in experiment [1], 9% in experiment [2], 0% in experiment [3] and 0% in experiment [4] (MNFS60 cells).

As for `CN(C)CCNC(=O)c1cc(Oc2ccc3nc(NCC4CCCCC4)sc3c2)ccn1` [Compound 160, 4-(2-(cyclohexylmethyl-amino)benzothiazol-6-yloxy)-N-(2-(dimethylamino)-ethyl)pyridine-2-carboxamide], the inhibition at 1 µM in experiment [1] stood at 99%; in experiment [2], 13%; in experiment [3], 18%; in experiment [4] (MNFS60 cells), 30%.

Take `CNC(=O)c1cc(Oc2ccc3nc(N[C@H]4CCC[C@@H]4O)sc3c2)ccn1` [Example 320, 4-(2-((1S,2S)-2-hydroxycyclopentylamino)benzo[d]thiazol-6-yloxy)-N-methylpicolinamide]: the inhibition at 1 µM was found to be 100% in experiment [1], 16% in experiment [2], 20% in experiment [3] and 25% in experiment [4] (MCSF dependent MNFS60 cells).

On to `Cc1nn(C)c(C)c1-c1cc(Oc2ccc3nc(N[C@@H]4CCCC[C@H]4O)sc3c2)ccn1` [Example 283, (1R,2R)-2-(6-(2-(1,3,5-trimethyl-1H-pyrazol-4-yl)pyridin-4-yloxy)benzo[d]thiazol-2-ylamino)cyclohexanol], for which the inhibition at 1 µM was determined as 99% in experiment [1] (compounds of Table 3), 38% in experiment [2] (compounds of Table 3), 20% in experiment [3] (compounds of Table 3) and 0% in experiment [4] (compounds of Table 3).

For the compound `CNC(=O)c1cc(Oc2ccc3nc(N[C@@H]4CC=CC[C@@H]4C(N)=O)sc3c2)ccn1` [Example 217], the inhibition at 1 µM in experiment [1] (compounds of Table 3) was 99%; in experiment [2] (compounds of Table 3) it was 16%; in experiment [3] (compounds of Table 3) it was 23%; in experiment [4] (compounds of Table 3), 0%.

Regarding `CNC(=O)c1cc(Oc2ccc3nc(NCc4ccccc4N4CCCCC4)sc3c2)ccn1` [Compound 153, 4-[2-(2-Piperidin-1-yl-benzylamino)-benzothiazol-6-yloxy]-pyridine-2-carboxylic acid methylamide], the inhibition at 1 µM in experiment [1] was 97%; in experiment [2], 0%; in experiment [3], 91%; in experiment [4] (MNFS60 cells), 63%.

Turning to `CNC(=O)c1cc(Oc2ccc3nc(NCc4c(Cl)cccc4OC)oc3c2)ccn1` [Compound 121, 4-[2-(2-Chloro-6-methoxy-benzylamino)-benzooxazol-6-yloxy]-pyridine-2-carboxylic acid methylamide], the inhibition at 1 µM came out at 100% in experiment [1], 9% in experiment [2], 30% in experiment [3] and 17% in experiment [4] (MNFS60 cells).

As to `CNC(=O)c1cc(Oc2ccc3nc(NCCc4cccnc4)sc3c2)ccn1` [Example 315, N-methyl-4-(2-(2-(pyridin-3-yl)ethylamino)benzo[d]thiazol-6-yloxy)picolinamide], the inhibition at 1 µM in experiment [1] was determined as 98%; in experiment [2], 17%; in experiment [3], 0%; in experiment [4] (MCSF dependent MNFS60 cells), 27%.

Turning to `OC[C@H](Cc1ccccc1)Nc1nc2ccc(Oc3ccnc4ccccc34)cc2s1` [Example 242], the inhibition at 1 µM in experiment [1] (compounds of Table 3) was 100%; in experiment [2] (compounds of Table 3), 97%; in experiment [3] (compounds of Table 3) it was 35%; in experiment [4] (compounds of Table 3) it was 51%.

As for `CNC(=O)c1cc(Oc2ccc3nc(N[C@@H]4CCCC[C@H]4NC(C)=O)sc3c2)ccn1` [Example 298, 4-(2-((1R,2R)-2-acetamidocyclohexylamino)benzo[d]thiazol-6-yloxy)-N-methylpicolinamide], the inhibition at 1 µM in experiment [1] (compounds of Table 3) amounted to 98%; in experiment [2] (compounds of Table 3), 13%; in experiment [3] (compounds of Table 3), 0%; in experiment [4] (compounds of Table 3) it was 41%.

For the compound `CNC(=O)c1cc(Oc2ccc3nc(N[C@H]4CCCC[C@H]4NS(C)(=O)=O)sc3c2)ccn1` [Example 300, N-methyl-4-(2-((1S,2R)-2-(methylsulfonylamido)cyclo-hexylamino)benzo[d]thiazol-6-yloxy)picolinamide], the inhibition at 1 µM stood at 99% in experiment [1], 2% in experiment [2], 0% in experiment [3] and 14% in experiment [4] (MCSF dependent MNFS60 cells).

Consider `C[C@H](Nc1nc2ccc(Oc3ccnc(Cl)c3)cc2s1)C1CCCCC1` [Example 264, (S)-6-(2-chloropyridin-4-yloxy)-N-(1-cyclohexylethyl)benzo[d]thiazol-2-amine], for which the inhibition at 1 µM in experiment [1] (compounds of Table 3) came out at 97%; in experiment [2] (compounds of Table 3), 25%; in experiment [3] (compounds of Table 3) it was 4%; in experiment [4] (compounds of Table 3), 3%.

With `Cn1cc(-c2cc(Oc3ccc4nc(NC[C@@H](O)c5ccccc5)sc4c3)ccn2)cn1` [Example 357, (S)-2-(6-(2-(1-methyl-1H-pyrazol-4-yl)pyridin-4-yloxy)benzo[d]thiazol-2-ylamino)-1-phenylethanol], the inhibition at 1 µM in experiment [1] came to 100%; in experiment [2] it was 91%; in experiment [3], 44%; in experiment [4] (MCSF dependent MNFS60 cells), 100%.

As to `CNC(=O)c1cc(Oc2ccc3nc(N[C@H]4CCCN(C(C)=O)C4)sc3c2)ccn1` [Example 304, (S)-4-(2-(1-acetylpiperidin-3-ylamino)benzo[d]thiazol-6-yloxy)-N-methylpicolinamide], the inhibition at 1 µM in experiment [1] was found to be 100%; in experiment [2], 9%; in experiment [3], 18%; in experiment [4] (MCSF dependent MNFS60 cells), 23%.

Consider `CCNc1cc(Oc2ccc3nc(N[C@@H]4CCCC[C@H]4O)sc3c2)ccn1` [Example 369, (1R,2R)-2-(6-(2-(ethylamino)pyridin-4-yloxy)benzo[d]thiazol-2-ylamino)cyclohexanol], for which the inhibition at 1 µM in experiment [1] stood at 100%; in experiment [2], 26%; in experiment [3], 12%; in experiment [4] (MCSF dependent MNFS60 cells), 44%.

As to `CNC(=O)c1cc(Oc2ccc3nc(NCC4COc5ccccc5O4)sc3c2)ccn1` (stereo not shown) [Compound 144], the inhibition at 1 µM worked out at 100% in experiment [1] (compounds of Table 3), 38% in experiment [2] (compounds of Table 3), 12% in experiment [3] (compounds of Table 3) and 41% in experiment [4] (compounds of Table 3).

As to `CNC(=O)c1cc(Oc2ccc3nc(N[C@H](CO)Cc4ccccc4)oc3c2)ccn1` [Compound 8], the inhibition at 1 µM in experiment [1] (compounds of Table 3) was 95%; in experiment [2] (compounds of Table 3) it was 99%; in experiment [3] (compounds of Table 3), 31%; in experiment [4] (compounds of Table 3), 0%.

Broadly, the inhibition is the share of the control response that was lost under treatment.
